In the supplement of paper PMC10307832:

What was measured:
Experiment in all cases: relative viability (nuclei count vs DMSO), 5 days (fraction); higher = more cells survive
[1] = compound: CC(C)CCN1c2nc(Nc3cc(F)c(O)c(F)c3)ncc2N(C)C(=O)C1C [BI-D1870] + CS(=O)(=O)CCNCc1ccc(-c2ccc3ncnc(Nc4ccc(OCc5cccc(F)c5)c(Cl)c4)c3c2)o1 [Lapatinib] (partner 2 µM)
How it was run: (§1)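 Relative viability equals treated-well nuclei counts divided by vehicle-well nuclei counts. Counts came from 4× images of lung cancer cell lines grown in 1536-well plates for 5 days after pin-tool dosing on the day after seeding. Dosing used one drug alone or a fixed anchor-drug dose plus five library-drug doses (not always all listed) in √10 steps, and values are medians of duplicate plates.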

[2] = compound: CC(C)CCN1c2nc(Nc3cc(F)c(O)c(F)c3)ncc2N(C)C(=O)C1C [BI-D1870] + Cc1nc(Nc2ncc(C(=O)Nc3c(C)cccc3Cl)s2)cc(N2CCN(CCO)CC2)n1 [Dasatinib] (partner 0.075 µM)
How it was run: as §1

[3] = compound: O=c1ncccn1[C@@H]1O[C@H](CO)[C@@H](O)[C@H]1O [Zebularine] + C[C@@H](Oc1cc(-c2cnn(C3CCNCC3)c2)cnc1N)c1c(Cl)ccc(F)c1Cl [Crizotinib] (partner 1 µM)
How it was run: as §1

[4] = compound: O=c1ncccn1[C@@H]1O[C@H](CO)[C@@H](O)[C@H]1O [Zebularine] + O=C(c1cc(Cc2n[nH]c(=O)c3ccccc23)ccc1F)N1CCN(C(=O)C2CC2)CC1 [Olaparib] (partner 8 µM)
How it was run: as §1

Cell Line	relative viability ([1]; first compound 0.04 µM)	relative viability ([1]; first compound 0.1265 µM)	relative viability ([1]; first compound 0.4 µM)	relative viability ([1]; first compound 1.265 µM)	relative viability ([1]; first compound 4 µM)	relative viability ([2]; first compound 0.04 µM)	relative viability ([2]; first compound 0.1265 µM)	relative viability ([2]; first compound 0.4 µM)	relative viability ([2]; first compound 1.265 µM)	relative viability ([2]; first compound 4 µM)	relative viability ([3]; first compound 1 µM)	relative viability ([3]; first compound 3.162 µM)	relative viability ([3]; first compound 10 µM)	relative viability ([3]; first compound 31.62 µM)	relative viability ([3]; first compound 100 µM)	relative viability ([4]; first compound 1 µM)	relative viability ([4]; first compound 3.162 µM)	relative viability ([4]; first compound 10 µM)	relative viability ([4]; first compound 31.62 µM)	relative viability ([4]; first compound 100 µM)
LU99A	1.11	0.942	0.928	0.941	0.939	0.753	0.51	0.512	0.467	0.425	0.683	0.531	0.383	0.255	0.153	0.306	0.243	0.245	0.182	0.135
LXF-289	0.927	0.831	0.881	0.87	0.788	0.254	0.239	0.216	0.223	0.244	0.835	0.828	0.714	0.622	0.238	1.06	0.995	0.549	0.31	0.275
NCI-H23	1.41	0.984	1.04	1.31	0.664	0.923	0.741	0.692	0.588	0.579	0.482	0.559	–	0.456	0.5	0.318	0.132	–	0.276	0.258
NCI-H322M	0.605	0.535	0.598	0.529	0.559	0.236	0.27	0.234	0.234	0.283	0.969	0.897	0.804	0.821	0.523	0.544	0.673	0.597	0.581	0.555
NCI-H358	0.501	0.413	0.551	0.504	0.556	0.177	0.172	0.195	0.257	0.288	0.618	0.475	0.237	0.387	0.252	0.67	0.597	0.343	0.295	0.225
NCI-H460	1.28	0.823	0.941	0.837	0.586	0.594	0.377	0.528	0.507	0.242	1.06	0.987	0.273	0.375	0.1	0.433	0.405	0.22	0.162	0.133
NCI-H520	1	0.714	0.846	0.619	0.704	0.207	0.189	0.235	0.198	0.186	0.784	0.717	0.429	0.372	0.261	0.337	0.299	0.319	0.243	0.192
NCI-H596	1.05	1.03	1.19	1.09	1.05	0.633	0.475	0.597	0.684	0.564	0.994	0.948	0.85	0.902	0.988	0.7	0.746	0.713	0.591	0.547
NCI-H647	1.26	0.927	1.02	1.03	0.671	0.184	0.113	0.243	0.23	0.208	1.18	0.981	0.254	0.142	0.228	0.506	0.291	0.171	0.15	0.165
NCI-H650	1.04	0.726	0.836	0.975	0.879	0.454	0.419	0.431	0.403	0.35	0.598	0.652	0.587	0.43	0.334	0.351	0.332	0.307	0.28	0.177
NCI-H661	0.56	0.406	0.45	0.442	0.499	1.04	0.867	0.874	0.898	0.708	1.24	1	1.02	1.05	0.997	0.856	0.708	0.56	0.943	0.688
NCI-H727	1.15	0.819	0.786	1.18	0.673	0.432	0.34	0.27	0.417	0.312	0.927	0.613	0.638	0.947	0.881	0.728	0.886	0.732	0.68	0.775
NCI-H838	1.13	0.942	1.1	1.24	1.02	0.342	0.244	0.314	0.274	0.243	0.93	0.838	0.493	0.65	0.3	0.856	0.798	0.546	0.38	0.266
NCI-H1355	0.955	0.959	0.907	1.21	0.809	0.886	0.726	0.767	0.838	0.674	1.12	0.966	0.87	0.404	0.315	0.625	0.426	0.375	0.28	0.272
NCI-H1437	0.899	0.686	0.76	0.802	0.653	0.46	0.343	0.413	0.394	0.285	1.09	0.987	–	0.902	0.31	0.661	0.641	0.511	0.443	0.482
NCI-H1650	0.822	0.715	0.721	0.753	0.738	0.266	0.393	0.32	0.281	0.273	1.04	0.788	–	1.13	0.86	0.731	0.642	0.634	0.912	0.39

Cell Line	relative viability ([1]; first compound 0.04 µM)	relative viability ([1]; first compound 0.1265 µM)	relative viability ([1]; first compound 0.4 µM)	relative viability ([1]; first compound 1.265 µM)	relative viability ([1]; first compound 4 µM)	relative viability ([2]; first compound 0.04 µM)	relative viability ([2]; first compound 0.1265 µM)	relative viability ([2]; first compound 0.4 µM)	relative viability ([2]; first compound 1.265 µM)	relative viability ([2]; first compound 4 µM)	relative viability ([3]; first compound 1 µM)	relative viability ([3]; first compound 3.162 µM)	relative viability ([3]; first compound 10 µM)	relative viability ([3]; first compound 31.62 µM)	relative viability ([3]; first compound 100 µM)	relative viability ([4]; first compound 1 µM)	relative viability ([4]; first compound 3.162 µM)	relative viability ([4]; first compound 10 µM)	relative viability ([4]; first compound 31.62 µM)	relative viability ([4]; first compound 100 µM)
NCI-H1651	0.828	0.666	0.769	0.892	0.647	0.405	0.293	0.345	0.297	0.237	0.919	0.893	0.604	0.745	0.514	0.183	0.188	0.187	0.165	0.166
NCI-H1666	0.825	0.543	0.639	0.909	0.383	0.839	0.84	0.701	0.824	0.744	1.01	0.783	1.05	1.02	0.596	0.812	0.803	0.65	0.802	0.75
NCI-H1734	1.27	1.07	0.975	1.01	0.72	0.464	0.455	0.436	0.471	0.484	0.71	0.696	0.391	0.384	0.295	0.581	0.523	0.334	0.303	0.239
NCI-H1755	1.11	0.982	1.08	1.16	0.992	0.511	0.408	0.407	0.567	0.442	1.03	0.872	0.612	0.864	0.466	0.911	0.891	0.729	0.74	0.472
NCI-H1792	0.926	0.953	0.881	0.967	0.794	0.841	0.68	0.599	0.829	0.645	1.06	0.876	0.381	0.386	0.339	0.228	0.131	0.204	0.171	0.182
NCI-H1915	1.04	0.984	0.969	1.04	0.834	0.356	0.276	0.294	0.274	0.261	1.18	0.911	0.649	0.926	0.698	0.266	0.262	0.243	0.253	0.197
NCI-H1944	0.932	0.669	0.659	0.835	0.768	0.216	0.214	0.215	0.253	0.238	1.21	1.06	0.681	0.87	0.666	0.449	0.474	0.366	0.34	0.246
NCI-H1975	1.1	0.865	0.858	0.863	0.464	0.497	0.314	0.359	0.399	0.295	1.02	1.07	0.513	0.317	0.265	0.84	0.574	0.277	0.257	0.251
NCI-H1993	0.855	0.774	0.88	0.809	0.789	0.663	0.48	0.697	0.868	0.467	0.732	0.801	–	0.862	0.646	1.09	0.885	0.416	0.982	0.693
NCI-H2009	1.01	0.955	0.885	0.741	0.478	0.325	0.212	0.304	0.248	0.141	1.07	0.962	0.817	0.681	0.311	0.624	0.648	0.461	0.438	0.263
NCI-H2023	0.903	0.745	0.886	0.764	0.59	0.619	0.378	0.577	0.617	0.426	0.807	0.569	0.611	0.389	0.201	0.512	0.452	0.392	0.256	0.244
NCI-H2085	0.731	0.71	0.739	0.926	0.654	0.246	0.246	0.222	0.239	0.281	0.986	0.814	0.827	0.804	0.488	0.782	0.709	0.568	0.482	0.399
NCI-H2087	1.14	1.09	1.34	1.36	0.877	0.93	0.798	0.921	0.891	0.743	1.07	0.803	0.551	0.654	0.197	0.607	0.478	0.323	0.34	0.239
NCI-H2126	0.814	0.741	0.768	0.85	0.693	0.575	0.6	0.55	0.548	0.483	1.11	0.987	0.958	0.804	0.503	1.08	0.855	0.778	0.664	0.43
NCI-H2170	0.309	0.238	0.278	0.275	0.234	0.735	0.584	0.529	0.54	0.575	1.31	1.13	0.7	0.981	0.517	0.707	0.561	0.414	0.364	0.166
NCI-H2228	1.2	0.854	0.989	0.927	0.482	0.543	0.403	0.553	0.544	0.337	0.462	0.38	0.42	0.521	0.37	0.737	0.503	–	0.283	0.236
